Results taken from US20220289794A1, “SYNTHETIC ANTIMICROBIAL PEPTIDES” (priority 2019, published 2022).
Values after ≈ are worked out from the molar mass of the structure shown. Non-standard residues stand in square brackets, D forms with d. Residues, ends and D or L forms follow the SMILES beside them. Trp(6-Cl) = N[C@@H](Cc1c[nH]c2cc(Cl)ccc12)C(=O)O; Dip = N[C@H](C(=O)O)C(c1ccccc1)c1ccccc1; 2Nal = N[C@@H](Cc1ccc2ccccc2c1)C(=O)O; d2Nal = N[C@H](Cc1ccc2ccccc2c1)C(=O)O; Dab = NCC[C@H](N)C(=O)O

Legend:
[1] = tested on: Pseudomonas aeruginosa (ATCC 27883); conditions: ATCC 27883
[2] = tested on: Escherichia coli (ATCC 25922); conditions: ATCC 25922
[3] = tested on: human red blood cells; set-up: unit not given beside the values
[4] = tested on: S. aureus ATCC 29213; conditions: ATCC 29213
[5] = tested on: Methicillin-resistant Staphylococcus aureus MRSA (ATCC BAA-1556); conditions: ATCC BAA-1556

| Structure (SMILES) | MIC P. aeruginosa ATCC 27883 [1] [µg/mL] | MIC E. coli ATCC 25922 [2] [µg/mL] | HC50 [3] | MIC S. aureus ATCC 29213 [4] [µg/mL] | MIC MRSA ATCC BAA-1556 [5] [µg/mL] |
| --- | --- | --- | --- | --- | --- |
| N=C(N)NCCC[C@H](NC(=O)[C@H](CCCNC(=N)N)NC(=O)[C@@H](N)CCCNC(=N)N)C(=O)N[C@H](C(=O)N[C@@H](Cc1c[nH]c2ccccc12)C(=O)N[C@H](C(=O)O)C(c1ccccc1)c1ccccc1)C(c1ccccc1)c1ccccc1 [IFX-021-1, NH2-R-R-R-Dip-Trp-Dip-OH] (H-RRR[Dip]W[Dip]-OH) | 50 (≈ 44.7 µM) | 12.5 (≈ 11.2 µM) | 325 | 6.2 (≈ 5.54 µM) | 6.2 (≈ 5.54 µM) |
| N=C(N)NCCC[C@H](NC(=O)[C@H](CCCNC(=N)N)NC(=O)[C@@H](N)CCCNC(=N)N)C(=O)N[C@@H](CCCNC(=N)N)C(=O)N[C@H](C(=O)N[C@H](C(=O)O)C(c1ccccc1)c1ccccc1)C(c1ccccc1)c1ccccc1 [IFX-010-1, NH2-Arg-Arg-Arg-Arg-Dip-Dip-OH] (H-RRRR[Dip][Dip]-OH) | 50 (≈ 45.9 µM) | 50 (≈ 45.9 µM) | 360 | 12.5 (≈ 11.5 µM) | 12.5 (≈ 11.5 µM) |
| N=C(N)NCCC[C@H](NC(=O)[C@H](CCCNC(=N)N)NC(=O)[C@@H](N)CCCNC(=N)N)C(=O)N[C@@H](Cc1c[nH]c2ccccc12)C(=O)N[C@@H](Cc1ccc2ccccc2c1)C(=O)N[C@@H](Cc1ccc2ccccc2c1)C(=O)O [IFX-023-1, NH2-R-R-R-Trp-NaI-NaI-OH] (H-RRRW[2Nal][2Nal]-OH) | 25 (≈ 23.4 µM) | 12.5 (≈ 11.7 µM) | 495 | 6.2 (≈ 5.81 µM) | 6.2 (≈ 5.81 µM) |
| N=C(N)NCCC[C@H](NC(=O)[C@H](CCCNC(=N)N)NC(=O)[C@H](CCCNC(=N)N)NC(=O)[C@@H](N)CCCNC(=N)N)C(=O)N[C@@H](Cc1c[nH]c2ccccc12)C(=O)N[C@@H](Cc1ccc2ccccc2c1)C(=O)N[C@@H](Cc1ccc2ccccc2c1)C(=O)O [IFX-029-1, NH2-R-R-R-R-Trp-NaI-NaI-OH] (H-RRRRW[2Nal][2Nal]-OH) | 50 (≈ 40.9 µM) | 12.5 (≈ 10.2 µM) | 400 | 3.1 (≈ 2.53 µM) | 3.1 (≈ 2.53 µM) |
| N=C(N)NCCC[C@@H]1NC(=O)[C@H](CCCNC(=N)N)NC(=O)[C@H](CCCNC(=N)N)NC(=O)[C@H](C(c2ccccc2)c2ccccc2)NC(=O)[C@H](C(c2ccccc2)c2ccccc2)NC(=O)[C@H](C(c2ccccc2)c2ccccc2)NC(=O)[C@H](C(c2ccccc2)c2ccccc2)NC(=O)[C@H](CCCNC(=N)N)NC1=O [IFX-005, c[Arg-Arg-Arg-Arg-Dip-Dip-Dip-Dip]] (cyclo([Dip][Dip][Dip][Dip]RRRR)) | 25 (≈ 16.5 µM) | 25 (≈ 16.5 µM) | 95 | 3.1 (≈ 2.04 µM) | 6.2 (≈ 4.08 µM) |
| N=C(N)NCCC[C@@H]1NC(=O)[C@@H](CCCNC(=N)N)NC(=O)[C@H](CCCNC(=N)N)NC(=O)[C@@H](Cc2ccc3ccccc3c2)NC(=O)[C@@H](Cc2ccc3ccccc3c2)NC(=O)[C@H](Cc2c[nH]c3ccccc23)NC(=O)[C@H](CCN)NC(=O)[C@@H](CCCNC(=N)N)NC1=O [IFX-054, c[Arg-arg-Arg-arg-Dab-Trp-naI-naI]] (cyclo([Dab]W[d2Nal][d2Nal]R[dR]R[dR])) | 64 (≈ 49 µM) | 32 (≈ 24.5 µM) | 620 | 32 (≈ 24.5 µM) | 64 (≈ 49 µM) |
| N=C(N)NCCC[C@@H]1NC(=O)[C@H](CCN)NC(=O)[C@@H](Cc2ccc3ccccc3c2)NC(=O)[C@@H](Cc2ccc3ccccc3c2)NC(=O)[C@H](Cc2c[nH]c3ccccc23)NC(=O)[C@@H](CCCNC(=N)N)NC(=O)[C@H](CCCNC(=N)N)NC(=O)[C@H](CCN)NC(=O)[C@@H](CCCNC(=N)N)NC1=O [IFX-058, c[Dab-Arg-arg-Dab-Arg-arg-Trp-naI-naI]] (cyclo([Dab]R[dR][Dab]R[dR]W[d2Nal][d2Nal])) | 32 (≈ 22.8 µM) | 32 (≈ 22.8 µM) | 655 | 32 (≈ 22.8 µM) | 64 (≈ 45.5 µM) |
| N=C(N)NCCC[C@H]1NC(=O)[C@H](Cc2c[nH]c3ccccc23)NC(=O)[C@H](Cc2c[nH]c3ccccc23)NC(=O)[C@H](Cc2c[nH]c3ccccc23)NC(=O)[C@H](Cc2c[nH]c3ccccc23)NC(=O)[C@@H](CCCNC(=N)N)NC(=O)[C@@H](CCCNC(=N)N)NC(=O)[C@@H](CCCNC(=N)N)NC1=O [IFX-036, c[arg-arg-arg-arg-Trp-Trp-Trp-Trp]] (cyclo([dR][dR][dR][dR]WWWW)) | 25 (≈ 18.3 µM) | 12.5 (≈ 9.13 µM) | 600 | 6.2 (≈ 4.53 µM) | 6.2 (≈ 4.53 µM) |
| N=C(N)NCCC[C@H](NC(=O)[C@H](CCCNC(=N)N)NC(=O)[C@@H](NC(=O)[C@@H](NC(=O)[C@H](CCCNC(=N)N)NC(=O)[C@@H](N)CCCNC(=N)N)C(c1ccccc1)c1ccccc1)C(c1ccccc1)c1ccccc1)C(=O)N[C@H](C(=O)O)C(c1ccccc1)c1ccccc1 [IFX-017-1, NH2-Arg-Arg-Dip-Dip-Arg-Arg-Dip-OH] (H-RR[Dip][Dip]RR[Dip]-OH) | 25 (≈ 19 µM) | 25 (≈ 19 µM) | 370 | 12.5 (≈ 9.52 µM) | 12.5 (≈ 9.52 µM) |
| N=C(N)NCCC[C@@H]1NC(=O)[C@H](CCCNC(=N)N)NC(=O)[C@H](CCCNC(=N)N)NC(=O)[C@H](C(c2ccccc2)c2ccccc2)NC(=O)[C@H](C(c2ccccc2)c2ccccc2)NC(=O)[C@H](CCCNC(=N)N)NC1=O [IFX-010, c[Arg-Arg-Arg-Arg-Dip-Dip]] (cyclo([Dip][Dip]RRRR)) | 25 (≈ 23.3 µM) | 50 (≈ 46.7 µM) | 270 | 6.2 (≈ 5.79 µM) | 6.2 (≈ 5.79 µM) |
| N=C(N)NCCC[C@@H]1NC(=O)[C@H](CCCNC(=N)N)NC(=O)[C@H](CCCNC(=N)N)NC(=O)[C@H](Cc2c[nH]c3cc(Cl)ccc23)NC(=O)[C@H](Cc2c[nH]c3cc(Cl)ccc23)NC(=O)[C@H](Cc2c[nH]c3cc(Cl)ccc23)NC(=O)[C@H](Cc2c[nH]c3cc(Cl)ccc23)NC(=O)[C@H](CCCNC(=N)N)NC1=O [IFX-040, c[Arg-Arg-Arg-Arg-6clW-6clW-6clW-6clW]] (cyclo(RRRR[Trp(6-Cl)][Trp(6-Cl)][Trp(6-Cl)][Trp(6-Cl)])) | 100 (≈ 66.3 µM) | 100 (≈ 66.3 µM) | 490 | 3.1 (≈ 2.06 µM) | 3.1 (≈ 2.06 µM) |
| N=C(N)NCCC[C@H](NC(=O)[C@H](CCCNC(=N)N)NC(=O)[C@@H](N)CCCNC(=N)N)C(=O)N[C@@H](CCCNC(=N)N)C(=O)N[C@H](C(=O)N[C@H](C(=O)N[C@@H](Cc1c[nH]c2ccccc12)C(=O)O)C(c1ccccc1)c1ccccc1)C(c1ccccc1)c1ccccc1 [IFX-028-1, NH2-R-R-R-R-Dip-Dip-Trp-OH] (H-RRRR[Dip][Dip]W-OH) | 50 (≈ 39.2 µM) | 25 (≈ 19.6 µM) | 570 | 6.2 (≈ 4.86 µM) | 6.2 (≈ 4.86 µM) |
| N=C(N)NCCC[C@H](NC(=O)[C@H](CCCNC(=N)N)NC(=O)[C@H](CCCNC(=N)N)NC(=O)[C@@H](N)CCCNC(=N)N)C(=O)N[C@@H](Cc1ccc2ccccc2c1)C(=O)N[C@@H](Cc1ccc2ccccc2c1)C(=O)O [IFX-011-1, NH2-Arg-Arg-Arg-Arg-NaI-NaI-OH] (H-RRRR[2Nal][2Nal]-OH) | >100 | 50 (≈ 48.2 µM) | 310 | 6.2 (≈ 5.98 µM) | 6.2 (≈ 5.98 µM) |
| N=C(N)NCCC[C@H](NC(=O)[C@H](CCCNC(=N)N)NC(=O)[C@@H](N)CCCNC(=N)N)C(=O)N[C@@H](Cc1ccc2ccccc2c1)C(=O)N[C@@H](Cc1ccc2ccccc2c1)C(=O)N[C@@H](Cc1ccc2ccccc2c1)C(=O)O [IFX-003-1, NH2-Arg-Arg-Arg-NaI -NaI-NaI-OH] (H-RRR[2Nal][2Nal][2Nal]-OH) | 25 (≈ 23.2 µM) | 16 (≈ 14.8 µM) | 310 | 3.1 (≈ 2.87 µM) | 3.1 (≈ 2.87 µM) |
| N=C(N)NCCC[C@@H]1NC(=O)[C@H](CCCNC(=N)N)NC(=O)[C@H](CCCNC(=N)N)NC(=O)[C@H](C(c2ccccc2)c2ccccc2)NC(=O)[C@H](C(c2ccccc2)c2ccccc2)NC(=O)[C@H](C(c2ccccc2)c2ccccc2)NC(=O)[C@H](CCCNC(=N)N)NC(=O)[C@H](CCCNC(=N)N)NC1=O [IFX-012, c[Arg-Arg-Arg-Arg-Arg-Dip-Dip-Dip]] (cyclo([Dip][Dip][Dip]RRRRR)) | 25 (≈ 17.2 µM) | 25 (≈ 17.2 µM) | 195 | 6.2 (≈ 4.27 µM) | 6.2 (≈ 4.27 µM) |
